Literature values, collected in patent US8431151B2, “Antimicrobial nanostructured hydrogel web containing silver” (Syracuse University, priority 2009, dated 2013).

Key:
[1] = tested on: 16 bacterial species including Escherichia coli, Pseudomonas aeruginosa, and Staphylococcus aureus; settings: 16 bacterial species tested
mouse bone marrow cells = settings: 4 μg/mL silver (Ag^+)

Q: Which “silver concentration at which bacterial species are inhibited” value [1] does the source give for `[Ag+]` [silver (Ag^+)] here?
A: 1.25 µg/mL

Q: What about the “detrimental effects to mouse bone marrow cells” value (mouse bone marrow cells) of the same molecule?
A: does not exhibit any obvious detrimental effects
